pIC50: −log10 of the molar value. Entries after “also recorded” stand apart in the source; their conditions may differ. One block for each compound: values may come before it.
Assays:
[1] = test system: ALCL cell lines; experiment: Proliferation of NPM-ALK-dependent ALCL / ALK+ T-cell lymphoma cell lines; type: cell-based; conditions: FIGS. 5, 6
Source text: (§1) Cell proliferation inhibition assays were run for compound (II) with the five target NPM-ALK-dependent ALCL cell lines (Karpas 299, SuDHL-1, JB6, SupM2, UConn) and 12 unrelated cell lines (HEK293, CHO-K1, MCF7, HepG2, H292, H520, H1581, H596, H522, CHA-GO-K1, UMC-11, SK-MES1). […] The pronounced target cell-killing effect is also observed (molecular mechanisms to be determined).

[2] = test system: MMP-1 in A549 cells; experiment: PMA induced MMP-1 production in A549 cells; type: cell-based; conditions: one hour treatment
[3] = test system: A549 cells; experiment: TNFα-induced acute inflammation in A549 cells; type: cell-based; conditions: 100 nM Dex or 1 μM compound (VI)
[4] = test system: FKBP51 (GR pathway); experiment: GR specific anti-inflammatory marker FKBP51 in A549 cells; type: cell-based
[5] = test system: PC-12 cells; experiment: PC-12 cell cytotoxicity; type: cell-based; conditions: FIG. 13
[6] = test system: PC12 cells; experiment: NGF-stimulated neurite outgrowth in PC12 cells; type: cell-based; conditions: 100 nM compound, NGF 100 ng/ml, 6 days
Experimental: In chronic pain states, neurons form outgrowths which sensitize them to pain. NGF-induced neurite outgrowth was used as an assay for TrkA-dependent chronic/neuropathic pain activity.
Methods: PC12 cells were grown in 2% FBS and treated with or without NGF (100 ng/ml) 30 min before adding of vehicle or TRKA compounds for 6 days, changing media on day 3. On day 6 cells were fixed and stained for SRB before photographed for neurite outgrowth.

[7] = test system: MMP-1 in A549 cells; experiment: Combination of Trk inhibitor and glucocorticoid on MMP-1 expression in A549 cells; type: cell-based; conditions: sub-optimal concentrations
[8] = test system: A549 cells; experiment: Prolonged inflammation (PMA induced MMP-1 or IL-8) in A549 cells; type: cell-based; conditions: FIG. 17
Source text: Panel 3: All the above were done on the transcriptional level (i.e., MMP-1, IL-8, etc. expressions). For IL-8, this was verified on the translational (i.e., protein expression) level as well.

[9] = test system: IL-8 in A549 cells; experiment: PMA-induced IL-8 levels in A549 cells, with or without RU-486; type: cell-based; conditions: 4 hr treatments
[10] = molecular target: TRKA (Homo sapiens, UniProt P04629); experiment: TRKA kinase assay; type: biochemical; design: 6×His- or GST-tagged kinase domain fragments of the corresponding RTKs expressed in baculovirus system; host or cells: baculovirus system; conditions: Table 3A; read-out: Cell Free IC50 TRKA
[11] = Liver microsome stability, Human LM-P1 / HLM; type: in vitro ADME; conditions: Table 3A, human liver microsomes; read-out: CL HLM
Source text: Metabolic stability of compound (II) (labeled as CRL241 below) in vitro has been tested in a standard in vitro microsomal stability assay in human microsomes (Cerep Study 13170).

[12] = test system: U937; experiment: Cellular IC50, U937; type: cell-based; conditions: Homo sapiens, U-937; Table 3A
[13] = molecular target: RET (Homo sapiens, UniProt P07949); experiment: RET cell free kinase assay (Table 3A); type: biochemical
[14] = Liver microsome stability, Mouse LM-P1 / MLM; type: in vitro ADME; conditions: Table 3A, mouse liver microsomes; read-out: CL MLM
[15] = test system: SUDHL-1; experiment: Cellular IC50, SUDHL-1; type: cell-based; conditions: Homo sapiens, SU-DHL-1; Table 3A
Source text: as §1

[16] = test system: Karpas299; experiment: Cell proliferation inhibition, ALCL line Karpas299; type: cell-based; conditions: Homo sapiens, KARPAS-299; Table 3A; read-out: Cellular IC50 K-299
Source text: The IL-3-dependent lymphoid cell line BaF3 or BaF3 rendered IL-3-independent by engineered expression of NPM-ALK were used in parallel to test each candidate inhibitor. Control wells contained DMSO solvent without test compound. Specific inhibition of ALK signaling is indicated in the assay by impairment of NPM-ALK-expressing BaF3 cell growth without alterations in the growth of parental BaF3. This colorimetric assay of cell proliferation and viability is based upon reduction of the yellow monotetrazolium salt XTT to a water-soluble orange formazan dye, a reaction catalyzed by mitochondrial dehydrogenases in living cells only (Cell Proliferation Kit II, Cat. #1 465 015, Roche Biochemicals). In addition to testing compounds for their ability to impair the growth of BaF3 cells engineered to express NPM-ALK, the NPM-ALK-positive human lymphoma cell line Karpas-299 (Deutsche Sammlung von Mikroorganismen and Zellkulturen GmbH (DSMZ) no. ACC 31), the human BCR-ABL-positive chronic myeloid leukemia cell line K562 (American Type Culture Collection (ATCC) no. CCL-243), and the human T-cell leukemia line Jurkat (DSMZ no. ACC 282) were tested in these assays.
Each compound stock in 100% DMSO was first diluted using 8% DMSO/culture medium to produce a working stock of 250 μM compound. This working stock was then used to perform serial 1:1 dilutions (i.e., 125 μM, 62.5 μM, 31.25 μM, 15.625 μM, 7.8125 μM, and 3.90625 μM) using DMSO-free culture medium. Twenty (20) μL of each of these dilutions was then added to the cells (2×10^4 cells in 80 μL culture medium per 96-well) to obtain the final test compound concentrations (i.e., 25 μM, 12.5 μM, 6.25 μM, 3.125 μM, 1.5625 μM, and 0.78125 μM).
as §1

[17] = molecular target: ALK (Homo sapiens, UniProt Q9UM73); experiment: ALK kinase assay (Kinase-Glo / AlphaScreen, purified NPM-ALK); type: biochemical; design: fused to the complete intracytoplasmic portion of ALK containing the functional tyrosine kinase domain; 6xHis; made in house; host or cells: insect cells; the other entry of the earlier key: NPM1 (P06748, Nucleophosmin); conditions: Table 3A; read-out: Cell Free IC50 ALK;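 further: recombinant baculovirus-expressed ALK kinase domain, activity read either as leftover ATP by Kinase-Glo luminescence or as poly(Glu-Tyr) phosphorylation by anti-phosphotyrosine AlphaScreen proximity signal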
[18] = molecular target: ROS (Homo sapiens, UniProt P08922); experiment: ROS cell free kinase assay (Table 3A); type: biochemical
Sequence of ROS (P08922 28-2347): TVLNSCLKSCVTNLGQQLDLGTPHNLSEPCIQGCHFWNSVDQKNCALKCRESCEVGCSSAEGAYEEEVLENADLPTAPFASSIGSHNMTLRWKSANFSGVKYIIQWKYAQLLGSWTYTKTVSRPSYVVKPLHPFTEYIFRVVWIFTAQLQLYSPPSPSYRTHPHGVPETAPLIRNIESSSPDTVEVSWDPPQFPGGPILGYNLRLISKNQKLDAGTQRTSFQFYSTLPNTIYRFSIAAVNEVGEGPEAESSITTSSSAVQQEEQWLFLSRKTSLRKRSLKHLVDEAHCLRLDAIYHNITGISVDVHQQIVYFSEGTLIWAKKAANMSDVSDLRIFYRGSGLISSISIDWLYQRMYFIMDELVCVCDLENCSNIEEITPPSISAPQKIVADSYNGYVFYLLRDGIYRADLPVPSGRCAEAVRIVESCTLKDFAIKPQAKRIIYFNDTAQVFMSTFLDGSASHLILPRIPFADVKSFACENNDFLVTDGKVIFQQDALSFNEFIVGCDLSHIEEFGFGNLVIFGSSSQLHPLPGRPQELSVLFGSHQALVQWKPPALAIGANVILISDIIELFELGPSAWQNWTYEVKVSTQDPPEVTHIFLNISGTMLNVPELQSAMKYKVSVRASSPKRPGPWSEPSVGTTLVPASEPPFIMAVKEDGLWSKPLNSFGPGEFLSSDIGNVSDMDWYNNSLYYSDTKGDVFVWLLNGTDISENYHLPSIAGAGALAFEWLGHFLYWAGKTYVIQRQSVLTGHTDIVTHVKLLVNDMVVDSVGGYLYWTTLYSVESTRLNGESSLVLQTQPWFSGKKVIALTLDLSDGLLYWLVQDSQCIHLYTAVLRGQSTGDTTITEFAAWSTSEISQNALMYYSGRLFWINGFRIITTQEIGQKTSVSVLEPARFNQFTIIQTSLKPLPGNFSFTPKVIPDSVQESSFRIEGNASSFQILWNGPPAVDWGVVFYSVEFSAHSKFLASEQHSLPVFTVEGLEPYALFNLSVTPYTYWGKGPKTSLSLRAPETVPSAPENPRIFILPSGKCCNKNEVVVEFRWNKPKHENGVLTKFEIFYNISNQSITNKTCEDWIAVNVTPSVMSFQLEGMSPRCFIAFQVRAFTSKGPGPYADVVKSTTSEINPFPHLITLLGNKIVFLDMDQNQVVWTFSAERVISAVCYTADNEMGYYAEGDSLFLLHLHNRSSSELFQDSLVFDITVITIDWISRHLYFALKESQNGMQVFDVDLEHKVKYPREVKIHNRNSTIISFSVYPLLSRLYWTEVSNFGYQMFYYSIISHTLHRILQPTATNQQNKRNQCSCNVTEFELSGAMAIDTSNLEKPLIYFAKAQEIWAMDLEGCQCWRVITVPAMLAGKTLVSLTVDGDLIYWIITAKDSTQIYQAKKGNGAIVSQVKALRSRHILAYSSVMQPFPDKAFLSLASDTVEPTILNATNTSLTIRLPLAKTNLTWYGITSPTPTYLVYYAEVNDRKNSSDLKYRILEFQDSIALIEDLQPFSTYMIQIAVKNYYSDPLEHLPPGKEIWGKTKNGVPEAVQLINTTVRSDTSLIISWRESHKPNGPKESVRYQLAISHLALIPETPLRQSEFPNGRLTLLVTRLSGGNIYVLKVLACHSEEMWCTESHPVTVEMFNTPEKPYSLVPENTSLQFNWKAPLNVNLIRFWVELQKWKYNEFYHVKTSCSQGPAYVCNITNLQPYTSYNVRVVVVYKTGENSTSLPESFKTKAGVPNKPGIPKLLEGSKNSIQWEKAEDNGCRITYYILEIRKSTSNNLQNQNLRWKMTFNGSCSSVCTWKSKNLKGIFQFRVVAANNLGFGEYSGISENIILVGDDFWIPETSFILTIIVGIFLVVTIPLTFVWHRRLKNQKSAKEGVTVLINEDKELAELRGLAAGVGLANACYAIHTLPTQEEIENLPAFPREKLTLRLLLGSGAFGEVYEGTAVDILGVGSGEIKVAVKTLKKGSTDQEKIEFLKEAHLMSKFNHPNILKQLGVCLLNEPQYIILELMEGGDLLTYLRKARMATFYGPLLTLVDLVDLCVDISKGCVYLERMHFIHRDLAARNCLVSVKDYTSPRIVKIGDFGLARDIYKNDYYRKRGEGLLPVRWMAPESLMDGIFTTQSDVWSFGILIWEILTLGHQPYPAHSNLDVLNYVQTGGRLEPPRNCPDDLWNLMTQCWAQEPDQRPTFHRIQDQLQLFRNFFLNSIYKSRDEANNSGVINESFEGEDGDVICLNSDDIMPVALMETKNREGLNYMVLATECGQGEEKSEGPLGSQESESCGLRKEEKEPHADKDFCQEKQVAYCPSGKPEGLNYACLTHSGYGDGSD

Sequence of RET (P07949 29-1114): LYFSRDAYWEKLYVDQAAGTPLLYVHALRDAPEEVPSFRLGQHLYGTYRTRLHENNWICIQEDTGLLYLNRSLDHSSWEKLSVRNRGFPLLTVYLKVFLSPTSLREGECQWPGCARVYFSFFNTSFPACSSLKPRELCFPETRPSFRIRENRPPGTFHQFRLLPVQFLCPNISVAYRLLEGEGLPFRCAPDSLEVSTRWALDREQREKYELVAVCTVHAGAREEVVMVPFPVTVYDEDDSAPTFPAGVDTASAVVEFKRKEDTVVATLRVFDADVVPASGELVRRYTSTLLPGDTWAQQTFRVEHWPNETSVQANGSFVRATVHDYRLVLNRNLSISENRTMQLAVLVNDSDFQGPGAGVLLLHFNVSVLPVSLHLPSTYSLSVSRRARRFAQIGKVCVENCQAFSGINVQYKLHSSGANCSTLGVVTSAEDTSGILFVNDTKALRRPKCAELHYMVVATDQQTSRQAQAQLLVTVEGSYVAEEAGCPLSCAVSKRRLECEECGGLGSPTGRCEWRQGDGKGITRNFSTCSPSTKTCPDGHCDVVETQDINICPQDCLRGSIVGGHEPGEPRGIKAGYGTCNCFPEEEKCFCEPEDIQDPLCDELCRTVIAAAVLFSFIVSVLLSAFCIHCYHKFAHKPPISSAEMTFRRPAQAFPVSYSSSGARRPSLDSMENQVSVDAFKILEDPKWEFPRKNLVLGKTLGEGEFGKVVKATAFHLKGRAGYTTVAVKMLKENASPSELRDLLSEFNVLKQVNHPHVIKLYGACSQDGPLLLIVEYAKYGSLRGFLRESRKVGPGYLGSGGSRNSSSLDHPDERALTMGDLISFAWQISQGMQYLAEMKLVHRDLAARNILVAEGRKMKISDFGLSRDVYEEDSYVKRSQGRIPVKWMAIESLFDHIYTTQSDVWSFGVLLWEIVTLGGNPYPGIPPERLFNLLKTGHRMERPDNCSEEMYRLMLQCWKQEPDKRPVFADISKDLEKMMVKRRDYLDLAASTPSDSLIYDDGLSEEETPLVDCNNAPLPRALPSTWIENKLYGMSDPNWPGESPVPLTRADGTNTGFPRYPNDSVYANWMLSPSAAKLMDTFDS
Sequence of ALK (Q9UM73 with tags, fused parts or gaps): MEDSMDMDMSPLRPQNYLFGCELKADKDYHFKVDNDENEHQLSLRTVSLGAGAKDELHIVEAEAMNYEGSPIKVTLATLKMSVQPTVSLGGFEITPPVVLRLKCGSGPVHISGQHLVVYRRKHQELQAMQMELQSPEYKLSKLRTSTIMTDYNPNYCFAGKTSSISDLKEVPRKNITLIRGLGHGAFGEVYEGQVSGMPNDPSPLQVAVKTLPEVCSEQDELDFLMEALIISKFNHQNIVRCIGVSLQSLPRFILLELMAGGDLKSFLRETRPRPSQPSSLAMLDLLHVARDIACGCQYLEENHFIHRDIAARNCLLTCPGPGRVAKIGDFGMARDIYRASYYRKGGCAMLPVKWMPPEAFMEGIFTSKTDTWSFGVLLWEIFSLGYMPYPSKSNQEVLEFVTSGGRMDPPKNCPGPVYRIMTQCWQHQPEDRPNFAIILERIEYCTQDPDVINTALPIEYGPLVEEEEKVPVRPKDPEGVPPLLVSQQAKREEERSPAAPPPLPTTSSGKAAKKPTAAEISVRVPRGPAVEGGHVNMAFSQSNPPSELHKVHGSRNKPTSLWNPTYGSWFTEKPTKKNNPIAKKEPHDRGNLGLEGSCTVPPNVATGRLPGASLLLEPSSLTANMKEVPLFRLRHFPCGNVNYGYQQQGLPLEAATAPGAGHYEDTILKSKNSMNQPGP
Sequence of TRKA (P04629 510-781 limits assumed): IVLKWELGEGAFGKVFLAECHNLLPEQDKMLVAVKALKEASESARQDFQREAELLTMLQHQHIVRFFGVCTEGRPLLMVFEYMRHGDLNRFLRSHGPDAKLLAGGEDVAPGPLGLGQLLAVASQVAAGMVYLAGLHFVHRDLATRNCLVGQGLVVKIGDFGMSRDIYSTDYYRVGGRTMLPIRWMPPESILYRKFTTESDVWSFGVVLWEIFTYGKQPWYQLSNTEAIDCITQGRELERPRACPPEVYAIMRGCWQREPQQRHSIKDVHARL

Compound: C[C@@H](Cc1cccs1)Nc1cc[nH]c(=O)c1-c1nc2cc3c(cc2[nH]1)C(=O)N(CCCN1CCCC1)C3 [compound (V)]
Inhibition of ALCL / ALK+ T-cell lymphoma cell line proliferation [1]: potent and highly selective inhibitor of ALCL cell lines

Compound: C[C@@H](Cc1cc(F)cc(F)c1F)Nc1cc[nH]c(=O)c1-c1nc2cc3c(cc2[nH]1)CN(CCN(C)C)C3=O [compound (VI)]
Concentration required for complete inhibition of PMA induced MMP-1 production [2]: ~1 µM
TNFα-induced acute inflammation [3]: partially reversible
Activation of GR pathway (FKBP51 marker) [4]: did not active the GR pathway
PC-12 cell cytotoxicity [5]: lack of PC-12 cell cytotoxicity
NGF-stimulated neurite outgrowth [6]: inhibited the neurite outgrowth
Effect of combination with Dex on PMA-induced inflammation (MMP-1 expression) [7]: additive anti-inflammatory effects
Anti-inflammatory effect on prolonged inflammation (PMA induced MMP-1 or IL-8) [8]: anti-inflammatory activity was observed; also recorded: demonstrated anti-inflammatory activity which was not reversible by GR antagonist
Effect of GR antagonist RU-486 on inhibition of PMA-induced IL-8 levels [9]: not affected or possibly were more potent

pIC50 [10]: 8.30
CLint scaled [11]: < 5.8 mL/min/kg
pIC50 [12]: 5.93
pIC50 [13]: 8.22
CLint scaled [14]: < 5.8 mL/min/kg
pIC50 [15]: 7.03
pIC50 [16]: 7.00
pIC50 [17]: 8.00
pIC50 [18]: 9.52
Compound: C[C@@H](Cc1c(F)c(F)cc(F)c1F)Nc1cc[nH]c(=O)c1-c1nc2cc3c(cc2[nH]1)C(=O)N(C1CCN(C)CC1)C3

From patent US9249147B2, “Tyrosine kinase inhibitors” (CHEMBRIDGE CORPORATION, priority 2008, dated 2016)
